What was measured:
[1] = target: T1, PI3Kα (wild-type), P110/P85α (Homo sapiens, UniProt P42336); test: PI3 Kinase TR-FRET assay, PI3Kα (wild-type); format: biochemical
T1 construct: made in house; host or cells: SF9 insect cells
Description: The ability of compounds of the invention to inhibit PI3K activity was determined in a homogeneous TR-FRET assay using a PI3K assay kit (Millipore, USA; cat #33-016) according to manufacturer's instructions. PI3-Kinases (isoforms α, β, γ and δ) catalyze the phosphorylation of phosphatidylinositol, PIP2 to PIP3 in the presence of ATP and Mg^2+. The PIP3 product is detected by displacement of biotin-PIP3 from an energy transfer complex consisting of Europium labeled anti-GST monoclonal antibody, a GST-tagged PH domain, biotinylated PIP3 and Streptavidin-APC. Excitation of Europium in the complex results in an energy transfer to the APC and a fluorescence emission at 665 nm. The PIP3 product displaces biotin-PIP3 from the complex resulting in a loss of energy transfer and thus a decrease in signal.
To test for the ability of compounds to inhibit the activity of PI3Kα (wild-type), exemplary compounds of formula (I) were dissolved in DMSO and directly distributed into 384-well plates at a volume of 0.5 μL. 14.5 μL of P110/P85α/PIP2 mixture in buffer (obtained from the Millipore kit) containing MgCl2 (40 mM) and DTT (5 mM) was added to compound wells and incubated for 60 min at room temperature. P110/P85α was expressed in SF9 insect cells and purified nickel column extraction. Five ng of wild-type P110/P85α was used in the assay. The kinase reaction was started by the addition of ATP. The assay concentrations of both PIP2 and ATP were 10 μM. The reaction mixture was incubated for 30 min at room temperature and was terminated by the addition of stop mix and detection mix. Fluorescence was measured at 615 and 665 nm upon excitation at 340 nm in a Victor™ V5 fluorometer (Perkin Elmer, USA). The fluorescence emission ratio at 665 to 615 nm, proportional to the kinase activity, was plotted against the compound concentration to generate dose-response curves and IC50 values were determined using GraphPad Prism® 5 software.

mTOR kinase = target: T2, mTOR kinase (Homo sapiens, UniProt P42345); test: mTOR kinase TR-FRET assay; format: biochemical; details: read-out: mTO R
T2 construct: purchased Millipore, USA
Description: Compound inhibition for mTOR kinase was determined in a homogeneous TR-FRET assay using the Lance® ULight-p70 S6K (Thr 389) peptide (obtained from Perkin-Elmer). The ULight™-labeled synthetic peptide contains the amino acid residues surrounding Thr389 of human p70 S6K. The ULight-p70 S6K peptide is phosphorylated at Thr389 by mTOR. Phosphorylation motif: LGFTYVAP as substrate.
The compound dilution was carried out in 100% DMSO followed by a buffer dilution. The reaction buffer was HEPES (50 mM pH 7.5), EGTA (1 mM), MnCl2 (3 mM). Test compounds at various concentrations were pre-incubated with mTOR (Millipore, USA; 5 ng) for 60 min, and then the Lance® ULight-p70 S6K (Thr 389) peptide (50 nM) was added along with ATP (20 μM). After incubating the reaction mixture for 60 min at room temperature, the kinase reaction was terminated by the addition of EDTA (10 mM) followed by the addition of detection mix, i.e., 1 nM Eu-labeled anti-phospho-substrate antibody (Perkin Elmer, USA). The fluorescence emission at […] was measured upon excitation at 340 nm. IC50 values were subsequently determined using a sigmoidal dose-response curve (variable slope) in GraphPad Prism® 5 software.
Compounds of formula (I) caused inhibition of mTOR kinase activity as determined by this assay.

T1 sequence (P42336 whole entry): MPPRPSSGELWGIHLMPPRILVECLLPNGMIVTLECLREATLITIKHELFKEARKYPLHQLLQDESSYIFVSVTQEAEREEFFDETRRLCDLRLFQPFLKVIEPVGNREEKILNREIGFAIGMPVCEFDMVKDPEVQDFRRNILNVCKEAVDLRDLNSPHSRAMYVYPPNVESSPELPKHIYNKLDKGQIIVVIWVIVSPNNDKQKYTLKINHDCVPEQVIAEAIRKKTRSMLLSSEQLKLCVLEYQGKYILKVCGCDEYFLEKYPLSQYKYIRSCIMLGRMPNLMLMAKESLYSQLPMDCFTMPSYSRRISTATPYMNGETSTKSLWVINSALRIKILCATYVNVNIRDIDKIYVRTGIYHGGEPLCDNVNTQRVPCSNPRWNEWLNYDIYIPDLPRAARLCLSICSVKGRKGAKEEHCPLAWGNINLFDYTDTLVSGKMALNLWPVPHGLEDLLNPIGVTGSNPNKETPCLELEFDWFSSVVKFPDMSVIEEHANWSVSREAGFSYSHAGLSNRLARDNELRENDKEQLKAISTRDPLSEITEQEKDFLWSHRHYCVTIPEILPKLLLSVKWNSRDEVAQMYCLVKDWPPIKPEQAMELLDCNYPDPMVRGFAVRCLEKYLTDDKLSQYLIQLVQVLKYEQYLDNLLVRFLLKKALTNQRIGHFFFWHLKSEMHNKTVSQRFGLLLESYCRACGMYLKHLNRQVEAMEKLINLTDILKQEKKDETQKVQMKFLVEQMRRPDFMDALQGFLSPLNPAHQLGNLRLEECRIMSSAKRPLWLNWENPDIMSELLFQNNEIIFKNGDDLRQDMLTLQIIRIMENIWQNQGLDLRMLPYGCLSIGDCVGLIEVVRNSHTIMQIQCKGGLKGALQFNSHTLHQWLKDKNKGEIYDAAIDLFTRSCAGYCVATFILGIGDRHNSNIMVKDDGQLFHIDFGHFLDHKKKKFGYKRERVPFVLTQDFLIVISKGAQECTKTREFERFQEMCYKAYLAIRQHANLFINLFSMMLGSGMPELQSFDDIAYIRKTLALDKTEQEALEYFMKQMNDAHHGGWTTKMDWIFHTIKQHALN
T1 sequence (P27986 whole entry partner): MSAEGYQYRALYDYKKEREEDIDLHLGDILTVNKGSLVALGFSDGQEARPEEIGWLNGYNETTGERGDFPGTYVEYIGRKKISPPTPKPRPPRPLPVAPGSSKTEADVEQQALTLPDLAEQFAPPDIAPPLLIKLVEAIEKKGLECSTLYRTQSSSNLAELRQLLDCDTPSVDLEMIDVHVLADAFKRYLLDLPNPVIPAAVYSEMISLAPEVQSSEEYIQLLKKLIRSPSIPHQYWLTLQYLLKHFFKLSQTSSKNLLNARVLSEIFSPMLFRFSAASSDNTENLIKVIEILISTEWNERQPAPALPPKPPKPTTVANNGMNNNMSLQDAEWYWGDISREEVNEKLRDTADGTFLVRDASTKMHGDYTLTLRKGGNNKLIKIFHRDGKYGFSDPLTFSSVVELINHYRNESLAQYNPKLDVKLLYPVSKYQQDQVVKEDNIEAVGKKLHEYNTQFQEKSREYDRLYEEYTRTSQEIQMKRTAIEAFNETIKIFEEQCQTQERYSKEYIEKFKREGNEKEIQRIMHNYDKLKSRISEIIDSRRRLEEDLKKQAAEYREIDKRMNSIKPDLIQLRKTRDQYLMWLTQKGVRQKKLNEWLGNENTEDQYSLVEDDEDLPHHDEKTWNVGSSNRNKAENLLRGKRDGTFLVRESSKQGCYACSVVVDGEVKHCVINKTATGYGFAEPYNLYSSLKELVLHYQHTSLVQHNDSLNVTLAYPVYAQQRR

How did the IC50 [1] turn out when `Cc1ccc(-c2ccc3c(N4CCOC(C)C4)nc(-c4ccc(NC(=O)Nc5ccc(C(=O)N(C)C)cc5)cc4)nc3c2)o1` (centres unmarked) [Example 142, N,N-dimethyl-4-(3-(4-(7-(5-methylfuran-2-yl)-4-(2-methylmorpholino)quinazolin-2-yl)phenyl)ureido)-benzamide] was run?
The IC50 was 50 to 200 nM.

What about the IC50 (mTOR kinase) of the same compound?
The IC50 was 50 to 200 nM.

Which results are given for `CC1CN(c2nc(-c3ccc(NC(=O)Nc4ccc(C(=O)N(C)C)cc4)c(F)c3)nc3cc(-c4cncnc4)ccc23)CCO1` (centres unmarked) [Example 144, 4-(3-(2-fluoro-4-(4-(2-methylmorpholino)-7-(pyrimidin-5-yl)quinazolin-2-yl)phenyl)ureido)-N,N-dimethyl-benzamide]?
IC50 [1]: 50 to 200 nM; IC50 (mTOR kinase): < 50 nM

For `CN(C)C(=O)c1ccc(NC(=O)Nc2ccc(-c3nc(N4CCOCC4)c4ncc(-c5cccnc5F)cc4n3)cc2)c(F)c1` [Example 145, 3-fluoro-4-(3-(4-(7-(2-fluoropyridin-3-yl)-4-morpholino-pyrido[3,2-d]pyrimidin-2-yl)phenyl)ureido)-N,N-dimethyl-benzamide], which IC50 [1] is on record?
The IC50 was less than 50 nM.

What about the IC50 (mTOR kinase) of the same compound?
Its IC50 is less than 50 nM.

How did the IC50 [1] turn out when `CC1CN(c2nc(-c3ccc(NC(=O)Nc4ccc(C(=O)N(C)C)cc4)cc3)nc3cc(-c4cnn(C)c4)cnc23)CCO1` (centres unmarked) [Example 148, N,N-dimethyl-4-(3-(4-(7-(1-methyl-1H-pyrazol-4-yl)-4-(2-methylmorpholino)pyrido[3,2-d]pyrimidin-2-yl)phenyl)ureido)-benzamide] was run?
The IC50 was less than 50 nM.

What about the IC50 (mTOR kinase) of the same compound?
Its IC50 is less than 50 nM.

For `CN(C)C(=O)c1ccc(NC(=O)Nc2ccc(-c3nc(N4CCOCC4)c4cc(F)c(-c5ccco5)cc4n3)cc2)cc1` [Example 149, 4-(3-(4-(6-fluoro-7-(furan-2-yl)-4-morpholino-quinazolin-2-yl)phenyl)ureido)-N,N-dimethyl-benzamide], which IC50 [1] is on record?
The IC50 was 50 to 200 nM.

And the IC50 (mTOR kinase)?
The IC50 was 50 to 200 nM.

With `CN(C)C(=O)c1ccc(NC(=O)Nc2ccc(-c3nc(N4CCOCC4)c4ccc(-c5cnc(O)nc5)cc4n3)cc2)cc1` [Example 150, 4-(3-(4-(7-(2-hydroxypyrimidin-5-yl)-4-morpholino-quinazolin-2-yl)phenyl)ureido)-N,N-dimethyl-benzamide] as the compound, how does the IC50 [1] read?
Its IC50 is less than 50 nM.

And the IC50 (mTOR kinase)?
Its IC50 is less than 50 nM.

How did the IC50 [1] turn out when `COc1ccc(-c2ccc3c(N4CCOCC4)nc(-c4ccc(NC(=O)Nc5ccc(C(=O)N(C)C)cc5)c(F)c4)nc3c2)cn1` [Example 151, 4-(3-(2-fluoro-4-(7-(6-methoxypyridin-3-yl)-4-morpholino-quinazolin-2-yl)phenyl)ureido)-N,N-dimethyl-benzamide] was run?
Its IC50 is 50 to 200 nM.

What about the IC50 (mTOR kinase) of the same compound?
Its IC50 is 50 to 200 nM.

Which IC50 [1] does the source give for `CN(C)C(=O)c1ccc(NC(=O)Nc2ccc(-c3nc(N4CCOCC4)c4ncc(-c5cccnc5)cc4n3)cc2)c(F)c1` [Example 153, 3-fluoro-N,N-dimethyl-4-(3-(4-(4-morpholino-7-(pyridin-3-yl)pyrido[3,2-d]pyrimidin-2-yl)phenyl)ureido)-benzamide] here?
Its IC50 is less than 50 nM.

What about the IC50 (mTOR kinase) of the same compound?
Its IC50 is less than 50 nM.

With `CN(C)C(=O)c1ccc(NC(=O)Nc2ccc(-c3nc(N4CCOCC4)c4ncc(-c5cncnc5)cc4n3)cc2)c(F)c1` [Example 154, 3-fluoro-N,N-dimethyl-4-(3-(4-(4-morpholino-7-(pyrimidin-5-yl)pyrido[3,2-d]pyrimidin-2-yl)phenyl)ureido)-benzamide] as the compound, how does the IC50 [1] read?
The IC50 was less than 50 nM.

And the IC50 (mTOR kinase)?
Its IC50 is less than 50 nM.

With `CN(C)C(=O)c1ccc(NC(=O)Nc2ccc(-c3nc(N4CCOCC4)c4ccc(-c5ccccn5)cc4n3)cc2F)cc1` [Example 156, 4-(3-(2-fluoro-4-(4-morpholino-7-(pyridin-2-yl)quinazolin-2-yl)phenyl)ureido)-N,N-dimethyl-benzamide] as the compound, how does the IC50 [1] read?
Its IC50 is 50 to 200 nM.

And the IC50 (mTOR kinase)?
The IC50 was 50 to 200 nM.

With `COc1ncc(-c2cnc3c(N4CCOCC4)nc(-c4ccc(NC(=O)Nc5ccc(C(=O)N(C)C)cc5F)cc4)nc3c2)cn1` [Example 157, 3-fluoro-4-(3-(4-(7-(2-methoxypyrimidin-5-yl)-4-morpholino-pyrido[3,2-d]pyrimidin-2-yl)phenyl)ureido)-N,N-dimethyl-benzamide] as the compound, how does the IC50 [1] read?
The IC50 was less than 50 nM.

What about the IC50 (mTOR kinase) of the same compound?
Its IC50 is less than 50 nM.

For `CN1CCN(C(=O)c2ccc(NC(=O)Nc3ccc(-c4nc(N5CCOCC5)c5ccc(-c6ccco6)cc5n4)cc3)cc2)CC1` [Example 158, 1-(4-(7-(furan-2-yl)-4-morpholino-quinazolin-2-yl)phenyl)-3-(4-(4-methylpiperazine-1-carbonyl)phenyl)urea], which IC50 [1] is on record?
Its IC50 is less than 50 nM.

What about the IC50 (mTOR kinase) of the same compound?
Its IC50 is 50 to 200 nM.

What does the source list for `Cc1ccc(-c2ccc3c(N4CCOCC4)nc(-c4ccc(NC(=O)Nc5ccc(C(=O)N(C)C)cc5)cc4)nc3c2)cn1` [Example 161, N,N-dimethyl-4-(3-(4-(7-(6-methylpyridin-3-yl)-4-morpholino-quinazolin-2-yl)phenyl)ureido)-benzamide]?
IC50 [1]: < 50 nM; IC50 (mTOR kinase): < 50 nM

Which IC50 [1] does the source give for `Cc1nn(C)c(C)c1-c1ccc2c(N3CCOCC3)nc(-c3ccc(NC(=O)Nc4ccc(C(=O)N(C)C)cc4)cc3)nc2c1` [Example 162, N,N-dimethyl-4-(3-(4-(4-morpholino-7-(1,3,5-trimethyl-1H-pyrazol-4-yl)quinazolin-2-yl)phenyl)ureido)-benzamide] here?
The IC50 was less than 50 nM.

What about the IC50 (mTOR kinase) of the same compound?
Its IC50 is less than 50 nM.

With `COc1ncccc1-c1ccc2c(N3CCOCC3)nc(-c3ccc(NC(=O)Nc4ccc(C(=O)N(C)C)cc4)cc3)nc2c1` [Example 163, 4-(3-(4-(7-(2-methoxypyridin-3-yl)-4-morpholino-quinazolin-2-yl)phenyl)ureido)-N,N-dimethyl-benzamide] as the compound, how does the IC50 [1] read?
Its IC50 is less than 50 nM.

What about the IC50 (mTOR kinase) of the same compound?
The IC50 was less than 50 nM.

Which IC50 [1] does the source give for `CN(C)C(=O)c1ccc(NC(=O)Nc2ccc(-c3nc(N4CCOCC4)c4ccc(-c5cncc(F)c5)cc4n3)cc2)cc1` [Example 164, 4-(3-(4-(7-(5-fluoropyridin-3-yl)-4-morpholino-quinazolin-2-yl)phenyl)ureido)-N,N-dimethyl-benzamide] here?
Its IC50 is less than 50 nM.

What about the IC50 (mTOR kinase) of the same compound?
The IC50 was less than 50 nM.

For `Cc1ncccc1-c1ccc2c(N3CCOCC3)nc(-c3ccc(NC(=O)Nc4ccc(C(=O)N(C)C)cc4)cc3)nc2c1` [Example 165, N,N-dimethyl-4-(3-(4-(7-(2-methylpyridin-3-yl)-4-morpholino-quinazolin-2-yl)phenyl)ureido)-benzamide], which IC50 [1] is on record?
Its IC50 is less than 50 nM.

What about the IC50 (mTOR kinase) of the same compound?
Its IC50 is less than 50 nM.

For `Cc1ccc(-c2ccc3c(N4CCOCC4)nc(-c4ccc(NC(=O)Nc5ccc(C(=O)N(C)C)cc5F)cc4)nc3c2)cn1` [Example 166, 3-fluoro-N,N-dimethyl-4-(3-(4-(7-(6-methylpyridin-3-yl)-4-morpholino-quinazolin-2-yl)phenyl)ureido)-benzamide], which IC50 [1] is on record?
Its IC50 is less than 50 nM.

What about the IC50 (mTOR kinase) of the same compound?
Its IC50 is less than 50 nM.

`Cc1ncccc1-c1ccc2c(N3CCOCC3)nc(-c3ccc(NC(=O)Nc4ccc(C(=O)N(C)C)cc4F)cc3)nc2c1` [Example 167, 3-fluoro-N,N-dimethyl-4-(3-(4-(7-(2-methylpyridin-3-yl)-4-morpholino-quinazolin-2-yl)phenyl)ureido)-benzamide] was tested. Which IC50 [1] did it give?
Its IC50 is less than 50 nM.

What about the IC50 (mTOR kinase) of the same compound?
Its IC50 is less than 50 nM.

`CN(C)C(=O)c1ccc(NC(=O)Nc2ccc(-c3nc(N4CCOCC4)c4ccc(-c5ccccn5)cc4n3)cc2)c(F)c1` [Example 168, 3-fluoro-N,N-dimethyl-4-(3-(4-(4-morpholino-7-(pyridin-2-yl)quinazolin-2-yl)phenyl)ureido)-benzamide] was tested. Which IC50 [1] did it give?
The IC50 was less than 50 nM.

What about the IC50 (mTOR kinase) of the same compound?
Its IC50 is less than 50 nM.

Which results are given for `COc1ccncc1-c1ccc2c(N3CCOCC3)nc(-c3ccc(NC(=O)Nc4ccc(C(=O)N(C)C)cc4)cc3)nc2c1` [Example 169, 4-(3-(4-(7-(4-methoxypyridin-3-yl)-4-morpholino-quinazolin-2-yl)phenyl)ureido)-N,N-dimethyl-benzamide]?
IC50 [1]: < 50 nM; IC50 (mTOR kinase): < 50 nM

Which results are given for `COc1ccc(-c2ccc3c(N4CCOCC4)nc(-c4ccc(NC(=O)Nc5ccc(C(=O)N(C)C)cc5F)cc4)nc3c2)cn1` [Example 170, 3-fluoro-4-(3-(4-(7-(6-methoxypyridin-3-yl)-4-morpholino-quinazolin-2-yl)phenyl)ureido)-N,N-dimethyl-benzamide]?
IC50 [1]: < 50 nM; IC50 (mTOR kinase): 50 to 200 nM

Source: US9115092B2, “Substituted quinazoline and pyrido-pyrimidine derivatives” (Asana Biosciences, LLC, priority 2010, dated 2015)
